The structures appear in SMILES notation.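 Five compound concentrations were applied to cells in 96-well plates for 48 hours; endpoints were derived by simple linear interpolation of the resulting dose-response curve. At the GI50, growth is halved. Definition used: TGI = concentration required for complete inhibition of growth.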 Some results are limits rather than exact numbers.

Some test systems named below: HL-60(TB) leukemia; NCI-H522 lung; OVCAR-8 ovarian.
Holding throughout (assay): NCI anticancer screen, dose series, 48 h

As for `COc1cc2c(cc1C)NC(=O)/C2=C/c1c(Cl)[nH]c2cc(C)c(OC)cc12`, the values for the TGI in the experiment on HL-60(TB) leukemia, in the experiment with NCI-H522 lung and in the experiment on OVCAR-8 ovarian were 3.39 µM, 19.8 µM and 24.1 µM, respectively.
Consider `C=C1CC(OC(C)=O)/C=C(/C)CCC(C(C)(C)O)CC1O` (configuration not stated), for which the TGI with HL-60(TB) leukemia, with NCI-H522 lung and with OVCAR-8 ovarian was above 100 µM throughout.
In the case of `COc1ccc2c(c1)/C(=C(\C(Cl)=C(Cl)Cl)[N+](=O)[O-])N2`, the TGI in the experiment with HL-60(TB) leukemia is above 100 µM; in the experiment on NCI-H522 lung, 87 µM; in the experiment with OVCAR-8 ovarian, above 100 µM.
For `CCCCc1ccc(Nc2nc3c(ncn3C3OC(COC(C)=O)C(OC(C)=O)C3OC(C)=O)c(=O)[nH]2)cc1` (configuration not stated), the TGI with HL-60(TB) leukemia is 55.6 µM; with NCI-H522 lung it was 32.8 µM; with OVCAR-8 ovarian, 34.7 µM.
Take `C1CNCCN2CCCNCCN(C1)CC2`: the TGI in the experiment on NCI-H522 lung and with OVCAR-8 ovarian was above 100 µM in each case.
For the compound `CCN(CC)CCN1C(=O)c2cccc3c(-c4ccc5c(c4)ncn5C4CCCCC4)ccc(c23)C1=O`, in the experiment with HL-60(TB) leukemia, the GI50 is 1.95 µM and the TGI is 4.61 µM. For the same compound, in the experiment with OVCAR-8 ovarian, the GI50 is 1.75 µM and the TGI amounted to 4.62 µM.
On to `O=C1CCc2c3c(c4c([nH]c5ccccc54)c2CC1)C(=O)NC3=O`, for which the values for the TGI with HL-60(TB) leukemia, in the experiment with NCI-H522 lung and in the experiment with OVCAR-8 ovarian were 17.2 µM, 9.3 µM and 38.2 µM, respectively.
The like results for `CC(=O)OCC1C(C(C)OC(C)=O)CCC2C1CCC1(C)C(OC(C)=O)CCC21` (configuration not stated) were, in that order, 52.6 µM, 37.5 µM and 46.2 µM.
With `CCN(CC)CCN1c2ccccc2Sc2ccc3ccccc3c21`, the TGI in the experiment with HL-60(TB) leukemia was 15.1 µM; in the experiment with NCI-H522 lung, 27.9 µM; in the experiment on OVCAR-8 ovarian it was 26.8 µM.
The corresponding values for `COc1ccc(C2CCc3nc4nc(N)nc(N)c4cc3C2)cc1` (configuration not stated) are above 100 µM, above 100 µM and 22.5 µM.
With `CCOC(=O)C(Cc1ccc2c(c1)CCC2)(Cc1ccc2c(c1)CCC2)C(=O)OCC`, the TGI in the experiment with HL-60(TB) leukemia, with NCI-H522 lung and with OVCAR-8 ovarian was above 100 µM throughout.
As to `COc1ccc2nc(-c3ccc(OC(=O)N(C)C)cc3)cn2c1`, the TGI with HL-60(TB) leukemia, in the experiment on NCI-H522 lung and with OVCAR-8 ovarian was above 100 µM in each case.
Consider `CC1=CC(c2ccccc2)OP1(=O)c1ccccc1` (configuration not stated), for which the TGI in the experiment on HL-60(TB) leukemia, in the experiment on NCI-H522 lung and with OVCAR-8 ovarian was above 100 µM each time.
For the compound `CS(C)(=O)=N/C=C\C(=O)C(Cl)(Cl)Cl`, the TGI with HL-60(TB) leukemia, with NCI-H522 lung and with OVCAR-8 ovarian was above 100 µM in each case.
Take `O=C(N/N=C(/COc1cccc(Cl)c1)N=Cc1ccncc1)c1ccncc1`: the TGI in the experiment on HL-60(TB) leukemia, in the experiment with NCI-H522 lung and in the experiment with OVCAR-8 ovarian was above 100 µM in each case.
With `O=C(N=Nc1ccc([N+](=O)[O-])cc1)NNc1ccc([N+](=O)[O-])cc1`, the TGI with HL-60(TB) leukemia was determined as 46.9 µM; with NCI-H522 lung, 33.1 µM; in the experiment on OVCAR-8 ovarian, 41.9 µM.
The like results for `CSC1=N/C(=C\c2cccs2)C(=O)N1CN1CCOCC1` were, in that order, above 100 µM, above 100 µM and above 100 µM.
The like results for `c1ccc(Cc2cccc3cc(-c4ccc(-c5ccccc5)cc4)[nH]c23)cc1` were, in that order, above 100 µM, above 100 µM and above 100 µM.
The corresponding values for `CC1=C(C)C(=O)OC(C(C)(O)C2(O)CCC3(O)C4CC(Cl)C5(O)C(O)C=CC(=O)C5(C)C4CCC32C)C1` (configuration not stated) are 9.04 µM, above 100 µM and above 100 µM.
`COC1/C=C/C(C)C(OC)CC(O)/C=C/C(C)C(C(C)C(OC)C(C)CCC(=O)C(C)C(C/C=C/N(C)C=O)OC)OC(=O)/C=C/C=C(\C)CC(OC)C(OC)C2=CC(=O)O[C@@H](C(C)C(OC)C1)[C@H]2O` (some centres not stated): the TGI in the experiment on HL-60(TB) leukemia is above 25 µM; in the experiment with NCI-H522 lung it was 0.0722 µM; in the experiment with OVCAR-8 ovarian, 0.199 µM.
The like results for `Nc1[nH]c(=O)nc2sc3c(c12)CCCC3` were, in that order, above 100 µM, above 100 µM and above 100 µM.
The corresponding values for `O=C(CSc1nc2ccc(I)cc2c(=O)n1Cc1ccccc1)N/N=C/c1ccccc1` are above 100 µM, 40 µM and 60.5 µM.
The like results for `NC(=O)c1cnc2sc3ccccc3n2c1=O` were, in that order, above 100 µM, above 100 µM and above 100 µM.
Regarding `Cn1c(-c2ccccc2)cc(-c2ccc3c(c2)OCO3)c1-c1cccs1`, the TGI with HL-60(TB) leukemia and in the experiment on OVCAR-8 ovarian was above 100 µM each time.
As for `COc1cc(N=C(N)N=C(N)N)c2ncccc2c1`, the TGI in the experiment with NCI-H522 lung and in the experiment on OVCAR-8 ovarian was above 100 µM throughout.
Consider `COc1cc(/C=C2\C(=O)N(c3cccc(Cl)c3)C(c3ccccc3)S2(=O)=O)cc(OC)c1OC` (configuration not stated), for which the TGI was above 100 µM in the experiment on HL-60(TB) leukemia, 55.8 µM in the experiment with NCI-H522 lung and above 100 µM in the experiment with OVCAR-8 ovarian.
As to `NS(=O)(=O)c1ccc(NNC(=O)c2cccc3c(=O)c4ccccc4[nH]c23)cc1`, the TGI with HL-60(TB) leukemia, in the experiment with NCI-H522 lung and in the experiment with OVCAR-8 ovarian was above 100 µM each time.
For the compound `Cc1ccnc(NS(=O)(=O)c2ccc(NC(=O)c3ccc4nc5ccccc5c(Nc5ccc(S(=O)(=O)Nc6nccc(C)n6)cc5)c4c3)cc2)n1`, the TGI in the experiment with HL-60(TB) leukemia was above 100 µM; in the experiment on NCI-H522 lung, 87.4 µM; with OVCAR-8 ovarian it was above 100 µM.
In the case of `NC(CCCCCP(=O)(O)O)C(=O)O` (configuration not stated), the TGI with HL-60(TB) leukemia, with NCI-H522 lung and in the experiment on OVCAR-8 ovarian was above 100 µM each time.
Consider `COc1cc(Cn2c3c(c4c(CN(C)C)c(O)ccc42)C(=O)c2ccccc2C3=O)cc(OC)c1`, for which the TGI in the experiment on HL-60(TB) leukemia is above 100 µM; in the experiment with OVCAR-8 ovarian, 28.3 µM.

The values are drawn from PubChem BioAssay (NCI).
